Results taken from patent publication US8134015B2, “Compound inhibiting in vivo phosphorous transport and medicine containing the same” (Kyowa Hakko Kirin Co., Ltd., priority 2003, dated 2012).

What follows are compounds tested against T1, rat NaPi-2b (Rattus norvegicus, UniProt Q9JJ09) (assay: Sodium-dependent phosphate uptake of Xenopus oocytes which expressed NaPi-2b (32P)). Conditions: Xenopus oocytes expressing rat NaPi-2b, 32P radioactive phosphorus; read-out: IC50 (phosphate uptake inhibitory activity).
T1 construct: expressed in transfected cells; host or cells: Xenopus oocytes injected with cRNA
T1 sequence (Q9JJ09 1-695): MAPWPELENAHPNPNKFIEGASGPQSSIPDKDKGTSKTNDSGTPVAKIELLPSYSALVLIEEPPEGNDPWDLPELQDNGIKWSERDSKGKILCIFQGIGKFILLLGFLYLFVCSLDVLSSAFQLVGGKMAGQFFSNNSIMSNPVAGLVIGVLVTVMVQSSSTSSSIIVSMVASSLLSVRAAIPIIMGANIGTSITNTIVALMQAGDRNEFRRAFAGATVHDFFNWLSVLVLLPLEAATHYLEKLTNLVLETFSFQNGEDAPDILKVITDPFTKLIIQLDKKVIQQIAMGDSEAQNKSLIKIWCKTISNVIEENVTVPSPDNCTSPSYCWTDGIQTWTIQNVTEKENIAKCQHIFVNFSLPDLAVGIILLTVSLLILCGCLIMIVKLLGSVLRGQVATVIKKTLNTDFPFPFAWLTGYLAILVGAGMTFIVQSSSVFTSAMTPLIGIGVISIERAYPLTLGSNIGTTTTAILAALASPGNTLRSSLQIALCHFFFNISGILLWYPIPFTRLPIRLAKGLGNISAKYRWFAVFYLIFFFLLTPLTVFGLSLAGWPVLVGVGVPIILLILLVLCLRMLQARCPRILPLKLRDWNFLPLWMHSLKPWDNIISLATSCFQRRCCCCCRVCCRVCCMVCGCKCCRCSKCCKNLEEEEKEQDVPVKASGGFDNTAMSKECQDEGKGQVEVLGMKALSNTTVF
Type: cell-based
In short: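 Read-out is 32P phosphate uptake into Xenopus oocytes expressing rat intestinal NaPi-2b (cRNA injection, 2-day culture). Inhibition at 300 μM and 100 μM was derived from a single inhibition curve and given as percent.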

Row | SMILES | IC50 [µM]
1 | Cc1csc(NC(=O)c2cccc(CSc3nc[nH]n3)c2)c1C(=O)N/N=C/c1ccc(Cl)c(C(F)(F)F)c1 [Compound 555, N-[3-(4-Chloro-3-trifluoromethyl-benzylidene-hydrazinocarbonyl)-4-methyl-thiophen-2-yl]-3-(1H-[1,2,4]triazol-3-ylsulfanylmethyl)-benzamide] | < 3
2 | COc1ccc(/C=N/NC(=O)c2c(C)csc2NC(=O)c2cccc(CSc3nc[nH]n3)c2)cc1 [Compound 556, N-[3-(4-Methoxy-benzylidene-hydrazinocarbonyl)-4-methyl-thiophen-2-yl]-3-(1H-[1,2,4]triazol-3-ylsulfanylmethyl)-benzamide] | < 3
3 | Cc1ccc(/C=N/NC(=O)c2c(C)csc2NC(=O)c2cccc(CSCCCO)c2)cc1C [Compound 557, N-[3-(3,4-Dimethyl-benzylidene-hydrazinocarbonyl)-4-methyl-thiophen-2-yl]-3-(3-hydroxy-propylsulfanylmethyl)-benzamide] | < 0.3
4 | Cc1ccc(/C=N/NC(=O)c2c(C)csc2NC(=O)c2cccc(CSCCCO)c2)cc1 [Compound 558, 3-(3-Hydroxy-propylsulfanylmethyl)-N-[4-methyl-3-(4-methyl-benzylidene-hydrazinocarbonyl)-thiophen-2-yl]-benzamide] | 1.07
5 | Cc1csc(NC(=O)c2cccc(CSCCCO)c2)c1C(=O)N/N=C/c1ccc(F)cc1 [Compound 559, N-[3-(4-Fluoro-benzylidene-hydrazinocarbonyl)-4-methyl-thiophen-2-yl]-3-(3-hydroxy-propylsulfanylmethyl)-benzamide] | 1.26
6 | Cc1csc(NC(=O)c2cccc(CSCCCO)c2)c1C(=O)N/N=C/c1cccc(F)c1 [Compound 560, N-[3-(3-Fluoro-benzylidene-hydrazinocarbonyl)-4-methyl-thiophen-2-yl]-3-(3-hydroxy-propylsulfanylmethyl)-benzamide] | 1.09
7 | Cc1csc(NC(=O)c2cccc(CSCCCO)c2)c1C(=O)N/N=C/c1ccc(Cl)c(C(F)(F)F)c1 [Compound 561, N-[3-(4-Chloro-3-trifluoromethyl-benzylidene-hydrazinocarbonyl)-4-methyl-thiophen-2-yl]-3-(3-hydroxy-propylsulfanylmethyl)-benzamide] | 0.31
8 | COc1ccc(/C=N/NC(=O)c2c(C)csc2NC(=O)c2cccc(CSCCCO)c2)cc1 [Compound 562, 3-(3-Hydroxy-propylsulfanylmethyl)-N-[3-(4-methoxy-benzylidene-hydrazinocarbonyl)-4-methyl-thiophen-2-yl]-benzamide] | < 1
9 | CCN(CC)CCN(C)Cc1cccc(C(=O)Nc2scc(C)c2C(=O)N/N=C/c2ccc(C)c(C)c2)c1 [Compound 563, 3-{[(2-Diethylamino-ethyl)-methyl-amino]-methyl}-N-[3-(3,4-dimethyl-benzylidene-hydrazinocarbonyl)-4-methyl-thiophen-2-yl]-benzamide] | < 1
10 | CCN(CC)CCN(C)Cc1cccc(C(=O)Nc2scc(C)c2C(=O)N/N=C/c2ccc(C)cc2)c1 [Compound 564, 3-{[(2-Diethylamino-ethyl)-methyl-amino]-methyl}-N-[4-methyl-3-(4-methyl-benzylidene-hydrazinocarbonyl)-thiophen-2-yl]-benzamide] | 11.6
11 | CCN(CC)CCN(C)Cc1cccc(C(=O)Nc2scc(C)c2C(=O)N/N=C/c2ccc(F)cc2)c1 [Compound 565, 3-{[(2-Diethylamino-ethyl)-methyl-amino]-methyl}-N-[3-(4-fluoro-benzylidene-hydrazinocarbonyl)-4-methyl-thiophen-2-yl]-benzamide] | 13
12 | CCN(CC)CCN(C)Cc1cccc(C(=O)Nc2scc(C)c2C(=O)N/N=C/c2cccc(F)c2)c1 [Compound 566, 3-{[(2-Diethylamino-ethyl)-methyl-amino]-methyl}-N-[3-(3-fluoro-benzylidene-hydrazinocarbonyl)-4-methyl-thiophen-2-yl]-benzamide] | 14.6
13 | CCN(CC)CCN(C)Cc1cccc(C(=O)Nc2scc(C)c2C(=O)N/N=C/c2ccc(Cl)c(C(F)(F)F)c2)c1 [Compound 567, N-[3-(4-Chloro-3-trifluoromethyl-benzylidene-hydrazinocarbonyl)-4-methyl-thiophen-2-yl]-3-{[(2-diethylamino-ethyl)-methyl-amino]-methyl}-benzamide] | < 1
14 | CCN(CC)CCN(C)Cc1cccc(C(=O)Nc2scc(C)c2C(=O)N/N=C/c2ccc(OC)cc2)c1 [Compound 568, 3-{[(2-Diethylamino-ethyl)-methyl-amino]-methyl}-N-[3-(4-methoxy-benzylidene-hydrazinocarbonyl)-4-methyl-thiophen-2-yl]-benzamide] | 4.32
15 | Cc1ccc(/C=N/NC(=O)c2c(C)csc2NC(=O)c2cccc(CN3CCC(N4CCCCC4)CC3)c2)cc1C [Compound 569, 3-[1,4′]Bipiperidinyl-1′-ylmethyl-N-[3-(3,4-dimethyl-benzylidene-hydrazinocarbonyl)-4-methyl-thiophen-2-yl]-benzamide] | < 3
16 | Cc1ccc(/C=N/NC(=O)c2c(C)csc2NC(=O)c2cccc(CN3CCC(N4CCCCC4)CC3)c2)cc1 [Compound 570, 3-[1,4′]Bipiperidinyl-1′-ylmethyl-N-[4-methyl-3-(4-methyl-benzylidene-hydrazinocarbonyl)-thiophen-2-yl]-benzamide] | 6.04
17 | Cc1csc(NC(=O)c2cccc(CN3CCC(N4CCCCC4)CC3)c2)c1C(=O)N/N=C/c1ccc(F)cc1 [Compound 571, 3-[1,4′]Bipiperidinyl-1′-ylmethyl-N-[3-(4-fluoro-benzylidene-hydrazinocarbonyl)-4-methyl-thiophen-2-yl]-benzamide] | 5.27
18 | Cc1csc(NC(=O)c2cccc(CN3CCC(N4CCCCC4)CC3)c2)c1C(=O)N/N=C/c1cccc(F)c1 [Compound 572, 3-[1,4′]Bipiperidinyl-1′-ylmethyl-N-[3-(3-fluoro-benzylidene-hydrazinocarbonyl)-4-methyl-thiophen-2-yl]-benzamide] | 4.12
19 | Cc1csc(NC(=O)c2cccc(CN3CCC(N4CCCCC4)CC3)c2)c1C(=O)N/N=C/c1ccc(Cl)c(C(F)(F)F)c1 [Compound 573, 3-[1,4′]Bipiperidinyl-1′-ylmethyl-N-[3-(4-chloro-3-trifluoromethyl-benzylidene-hydrazinocarbonyl)-4-methyl-thiophen-2-yl]-benzamide] | 1.75
20 | COc1ccc(/C=N/NC(=O)c2c(C)csc2NC(=O)c2cccc(CN3CCC(N4CCCCC4)CC3)c2)cc1 [Compound 574, 3-[1,4′]Bipiperidinyl-1′-ylmethyl-N-[3-(4-methoxy-benzylidene-hydrazinocarbonyl)-4-methyl-thiophen-2-yl]-benzamide] | 6.93
21 | Cc1ccc(/C=N/NC(=O)c2c(C)csc2NC(=O)c2cccc(CN3CCN(CCO)CC3)c2)cc1C [Compound 575, N-[3-(3,4-Dimethyl-benzylidene-hydrazinocarbonyl)-4-methyl-thiophen-2-yl]-3-[4-(2-hydroxy-ethyl)-piperazin-1-ylmethyl]-benzamide] | < 3
22 | Cc1ccc(/C=N/NC(=O)c2c(C)csc2NC(=O)c2cccc(CN3CCN(CCO)CC3)c2)cc1 [Compound 576, 3-[4-(2-Hydroxy-ethyl)-piperazin-1-ylmethyl]-N-[4-methyl-3-(4-methyl-benzylidene-hydrazinocarbonyl)-thiophen-2-yl]-benzamide] | < 3
